In one assay the target is Melanocortin receptor 4 (Homo sapiens, UniProt P32245). Put plainly: MC4R antagonist potency on cAMP, dose response, cell-based, TR-FRET, biased antagonists (AID 602298).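 Further: antagonist potency against agonist-stimulated cAMP production.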 The assay is classed as functional.
Assay [1] is described as follows: nonselective inhibitors of cellular cAMP signaling, dose response, counter-screen for MC4R biased antagonist project, cell-based, TR-FRET cAMP detection (AID 602305).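 Further: U2OS cells stimulated with forskolin near its EC80 as the cAMP inducer; potency is for inhibition of forskolin-stimulated cAMP signaling.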 The assay is classed as functional.

Each structure is given as a SMILES string. Active and inactive are the calls of the source.

Sequence of Melanocortin receptor 4 (P32245 whole entry): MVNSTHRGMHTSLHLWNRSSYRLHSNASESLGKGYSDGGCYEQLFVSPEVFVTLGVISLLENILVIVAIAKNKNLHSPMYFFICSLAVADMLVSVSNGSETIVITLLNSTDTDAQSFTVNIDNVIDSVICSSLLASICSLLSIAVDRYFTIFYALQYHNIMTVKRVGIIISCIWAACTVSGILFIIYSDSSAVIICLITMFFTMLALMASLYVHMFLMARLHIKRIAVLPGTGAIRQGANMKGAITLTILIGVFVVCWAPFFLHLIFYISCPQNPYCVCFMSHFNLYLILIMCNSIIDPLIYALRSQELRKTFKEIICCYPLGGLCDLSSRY

Consider `CC(C)N(c1ccccc1)c1ccc(NC(=O)COC(=O)CCN2C(=O)c3cccc([N+](=O)[O-])c3C2=O)cc1`, for which the IC50 (at Melanocortin receptor 4; in assay [1]) was > 64.6 µM (inactive) each time.

In the case of `CCOC(=O)CSc1nnc(-c2ccc(NS(=O)(=O)c3ccc(C)cc3)cc2)o1`, the IC50 (at Melanocortin receptor 4; in assay [1]) was > 64.6 µM (inactive) in each case.

The record behind these values is ChEMBL document CHEMBL1201862, “PubChem BioAssay data set” (2004).
